Test results from publication PMC10526854, “Shikonin and Juglone Inhibit Mycobacterium tuberculosis Low-Molecular-Weight Protein Tyrosine Phosphatase a (Mt-PTPa)” (BioTech, 2023).

Tests used:
Mt-PTPa = biological target: T1, Mt-PTPa (Mycobacterium tuberculosis, UniProt P9WIA1); assay: Mt-PTPa phosphatase activity inhibition assay (hydrolysis of p-nitrophenyl phosphate, A405); type: biochemical; conditions: for Ki: Dixon plot analysis, inhibitor 0-100 µM, read-out: KI (inhibitor constant); for Ki / inhibition pattern (mechanism): pNPP 0.25-2.50 mM; for Ki / IC50 / inhibition of Mt-PTPa compared with vanadate: Mt-PTPa 10 µM; for IC50 / inhibition of Mt-PTPa compared with vanadate: pNPP 100 µM; for IC50: 37 °C, 10 min, compound 0-1000 µM, mean ± SD (n = 3); for inhibition of Mt-PTPa compared with vanadate: at 25 and 50 µM; for inhibition pattern (mechanism): double-reciprocal analysis
T1 construct: made in house; host or cells: E. coli BL21(DE3)pLysS

[1] = biological target: protein tyrosine phosphatase 1B (PTP1B); set-up: method as in PMID 34208908; conditions: in vitro; cited from earlier work
[2] = system: N-formyl-L-methionyl-L-leucyl-L-phenylalanine-induced protein tyrosine phosphorylation; set-up: method as in PMID 9175722; conditions: in neutrophils; cited from earlier work

T1 sequence (P9WIA1 whole entry): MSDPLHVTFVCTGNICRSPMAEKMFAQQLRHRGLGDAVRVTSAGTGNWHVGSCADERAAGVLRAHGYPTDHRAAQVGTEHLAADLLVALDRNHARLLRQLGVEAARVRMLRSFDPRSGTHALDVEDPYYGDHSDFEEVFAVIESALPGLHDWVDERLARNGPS

## CC(C)=CC[C@@H](O)C1=CC(=O)c2c(O)ccc(O)c2C1=O [Shikonin, 5,8-dihydroxy-2-[(1R)-1-hydroxy-4-methyl-3-pentenyl]-1,4-naphthoquinone]
Mt-PTPa
  initial library screen outcome: hits
  Ki: 8.5 µM
  IC50: 33 ± 7 µM
  inhibition of Mt-PTPa compared with vanadate: comparable levels of inhibition to vanadate
  inhibition pattern (mechanism): non-competitive
[1]
  IC50: 15.5 µM

## CC(=O)O[C@H](CC=C(C)C)C1=CC(=O)c2c(O)ccc(O)c2C1=O [acetylshikonin]
[2]
  reduction of protein tyrosine phosphorylation: 90%

## Oc1cc(O)c2c(c1)O[C@H](c1cc(O)c(O)c(O)c1)[C@H](O)C2 [Epigallocatechin, epigallocatechin]
Mt-PTPa
  initial library screen outcome: hits
  IC50: 492 ± 101 µM

## O=c1c(O)c(-c2cc(O)c(O)c(O)c2)oc2cc(O)cc(O)c12 [Myricetin, myricetin]
Mt-PTPa
  initial library screen outcome: hits
  IC50: 250 ± 25 µM

## C[C@H]1[C@H](C)CC[C@]2(C(=O)O)CC[C@]3(C)C(=CC[C@@H]4[C@@]5(C)CC[C@H](O)C(C)(C)[C@@H]5CC[C@]43C)[C@H]12 [ursolic acid, reference compound]
[1]
  IC50: 8.72 µM

## O=C1C=CC(=O)c2c(O)cccc21 [Juglone, 5-hydroxy-1,4-naphthalenedione]
Mt-PTPa
  Ki: 12.5 µM
  inhibition of Mt-PTPa compared with vanadate: comparable levels of inhibition to vanadate
  inhibition pattern (mechanism): non-competitive

## O=C(/C=C/c1ccc(O)c(O)c1)O[C@H](Cc1ccc(O)c(O)c1)C(=O)O [Rosmarinic Acid, rosmarinic acid]
Mt-PTPa
  initial library screen outcome: hits
  IC50: 900 ± 132 µM
